In ChEMBL document CHEMBL1938244, “Synthesis, anticancer activity and apoptosis inducing ability of bisindole linked pyrrolo[2,1-c][1,4]benzodiazepine conjugates” (2012):
The source made the active and inactive calls. No cut-off for these calls is given here.

Experiments:
MCF7 [1] = test: Anticancer activity against human MCF7 cells by SRB method; format: functional
ZR-75-1 = test: Anticancer activity against human ZR-75-1 cells by SRB method; format: functional
A2780 = test: Anticancer activity against human A2780 cells by SRB method; format: functional
COLO 205 = test: Anticancer activity against human COLO205 cells by SRB method; format: functional
SiHa = test: Anticancer activity against human SiHa cells by SRB method; format: functional
A549 = test: Anticancer activity against human A549 cells by SRB method; format: functional
KB = test: Anticancer activity against human KB cells by SRB method; format: functional
Tubulin (Homo sapiens) = Tubulin (Homo sapiens) (UniProt P68371+Q9H4B7+P0DPH7+P68366+Q13509+Q71U36+P04350+Q3ZCM7+P07437+P68363+Q9BQE3+Q6PEY2+Q13885+Q9BVA1+Q9BUF5); test: Inhibition of tubulin polymerization in human MCF7 cells at 2 uM after 24 hrs by FITC-conjugated immunostaining assay; format: cell-based
MCF7 [2] = test: Inhibition of HDAC1 protein expression in human MCF7 cells at 2 uM after 24 hrs by Western blotting; format: functional, cell-based
MCF7 [3] = test: Inhibition of HDAC2 protein expression in human MCF7 cells at 2 uM after 24 hrs by Western blotting; format: functional, cell-based
MCF7 [4] = test: Inhibition of HDAC3 protein expression in human MCF7 cells at 2 uM after 24 hrs by Western blotting; format: functional, cell-based
MCF7 [5] = test: Inhibition of HDAC8 protein expression in human MCF7 cells at 2 uM after 24 hrs by Western blotting; format: functional, cell-based
MCF7 [6] = test: Induction of apoptosis in human MCF7 cells assessed as PARP-cleavage at 8 uM after 24 hrs by Western blot analysis; format: functional, cell-based
MCF7 [7] = test: Induction of apoptosis in human MCF7 cells assessed as caspase-7 activation at 8 uM after 24 hrs by Western blot analysis; format: functional, cell-based
MCF7 [8] = test: Anticancer activity against human MCF7 cells assessed as cell death at 2 uM after 24 hrs by MTT assay; format: functional
MCF7 [9] = test: Induction of cell cycle arrest in human MCF7 cells assessed as accumulation of cells in G0 phase at 2 uM after 24 hrs by flow cytometry relative to untreated control; format: functional
MCF7 [10] = test: Induction of cell cycle arrest in human MCF7 cells assessed as accumulation of cells in G1 phase at 2 uM after 24 hrs by flow cytometry relative to untreated control; format: functional
MCF7 [11] = test: Induction of cell cycle arrest in human MCF7 cells assessed as accumulation of cells in S phase at 2 uM after 24 hrs by flow cytometry relative to untreated control; format: functional
MCF7 [12] = test: Induction of cell cycle arrest in human MCF7 cells assessed as accumulation of cells in G2/M phase at 2 uM after 24 hrs by flow cytometry relative to untreated control; format: functional
MCF7 [13] = test: Induction of cell cycle arrest in human MCF7 cells assessed as accumulation of cells in G0 phase at 4 uM after 24 hrs by flow cytometry relative to untreated control; format: functional
MCF7 [14] = test: Induction of cell cycle arrest in human MCF7 cells assessed as accumulation of cells in G1 phase at 4 uM after 24 hrs by flow cytometry relative to untreated control; format: functional
MCF7 [15] = test: Induction of cell cycle arrest in human MCF7 cells assessed as accumulation of cells in S phase at 4 uM after 24 hrs by flow cytometry relative to untreated control; format: functional
MCF7 [16] = test: Induction of cell cycle arrest in human MCF7 cells assessed as accumulation of cells in G2/M phase at 4 uM after 24 hrs by flow cytometry relative to untreated control; format: functional
MCF7 [17] = test: Induction of cell cycle arrest in human MCF7 cells assessed as accumulation of cells in G0 phase at 8 uM after 24 hrs by flow cytometry relative to untreated control; format: functional
MCF7 [18] = test: Induction of cell cycle arrest in human MCF7 cells assessed as accumulation of cells in G1 phase at 8 uM after 24 hrs by flow cytometry relative to untreated control; format: functional
MCF7 [19] = test: Induction of cell cycle arrest in human MCF7 cells assessed as accumulation of cells in S phase at 8 uM after 24 hrs by flow cytometry relative to untreated control; format: functional
MCF7 [20] = test: Induction of cell cycle arrest in human MCF7 cells assessed as accumulation of cells in G2/M phase at 8 uM after 24 hrs by flow cytometry relative to untreated control; format: functional
MCF7 [21] = test: Induction of cell cycle arrest in human MCF7 cells assessed as accumulation of cells in G0 phase at 2 uM after 24 hrs by flow cytometry (reference value: 2.9%); format: functional
MCF7 [22] = test: Induction of cell cycle arrest in human MCF7 cells assessed as accumulation of cells in G1 phase at 2 uM after 24 hrs by flow cytometry (reference value: 46%); format: functional
MCF7 [23] = test: Induction of cell cycle arrest in human MCF7 cells assessed as accumulation of cells in S phase at 2 uM after 24 hrs by flow cytometry (reference value: 14.87%); format: functional
MCF7 [24] = test: Induction of cell cycle arrest in human MCF7 cells assessed as accumulation of cells in G2/M phase at 2 uM after 24 hrs by flow cytometry (reference value: 36.23%); format: functional
MCF7 [25] = test: Induction of cell cycle arrest in human MCF7 cells assessed as accumulation of cells in G0 phase at 4 uM after 24 hrs by flow cytometry (reference value: 3.22%); format: functional
MCF7 [26] = test: Induction of cell cycle arrest in human MCF7 cells assessed as accumulation of cells in G1 phase at 4 uM after 24 hrs by flow cytometry (reference value: 65.58%); format: functional
MCF7 [27] = test: Induction of cell cycle arrest in human MCF7 cells assessed as accumulation of cells in S phase at 4 uM after 24 hrs by flow cytometry (reference value: 5.55%); format: functional
MCF7 [28] = test: Induction of cell cycle arrest in human MCF7 cells assessed as accumulation of cells in G2/M phase at 4 uM after 24 hrs by flow cytometry (reference value: 25.65%); format: functional
MCF7 [29] = test: Induction of cell cycle arrest in human MCF7 cells assessed as accumulation of cells in G0 phase at 8 uM after 24 hrs by flow cytometry (reference value: 3.22%); format: functional
MCF7 [30] = test: Induction of cell cycle arrest in human MCF7 cells assessed as accumulation of cells in G1 phase at 8 uM after 24 hrs by flow cytometry (reference value: 65.58%); format: functional
MCF7 [31] = test: Induction of cell cycle arrest in human MCF7 cells assessed as accumulation of cells in S phase at 8 uM after 24 hrs by flow cytometry (reference value: 5.55%); format: functional
MCF7 [32] = test: Induction of cell cycle arrest in human MCF7 cells assessed as accumulation of cells in G2/M phase at 8 uM after 24 hrs by flow cytometry (reference value: 25.65%); format: functional

Row | Structure (SMILES) | GI50 (MCF7 [1]) [µM] | GI50 (A2780) [µM] | GI50 (COLO 205) [µM] | GI50 (SiHa) [µM] | GI50 (A549) [µM] | GI50 (KB) [µM] | inhibition (Tubulin (Homo sapiens)) | inhibition (MCF7 [2]) | inhibition (MCF7 [3]) | inhibition (MCF7 [4]) | inhibition (MCF7 [5]) | Activity (MCF7 [6]) | Activity (MCF7 [7]) | Activity (MCF7 [8]) | Activity (MCF7 [9]) [%] | Activity (MCF7 [10]) [%] | Activity (MCF7 [11]) [%] | Activity (MCF7 [12]) [%] | Activity (MCF7 [13]) [%] | Activity (MCF7 [14]) [%] | further results
1 | COc1cccc2c1C(=O)c1c(O)c3c(c(O)c1C2=O)C[C@@](O)(C(=O)CO)C[C@@H]3O[C@H]1C[C@H](N)[C@H](O)[C@H](C)O1 [DOXORUBICIN] | < 0.1 | < 0.1 | 14.7 | 1.9 | 13 | 0.16 | – | – | – | – | – | – | – | – | – | – | – | – | – | – | GI50 (ZR-75-1): < 0.1 µM
2 | COc1cc2c(cc1OCCCCCCOc1ccc(C(c3c[nH]c4ccccc34)c3c[nH]c4ccccc34)cc1)N=C[C@@H]1CCCN1C2=O | 0.14 | 2.46 | – | – | 29 | – | – | – | – | – | – | – | – | – | – | – | – | – | – | – | –
3 | Oc1ccc(C(c2c[nH]c3ccccc23)c2c[nH]c3ccccc23)cc1 | – | – | – | – | – | – | Active | Active | Active | Active | Active | Active | Active | Active | 3.16 | 53.85 | 9.26 | 33.7 | 5.01 | 49.65 | Activity (MCF7 [15]): 9.78%; Activity (MCF7 [16]): 35.56%; Activity (MCF7 [17]): 7.05%; Activity (MCF7 [18]): 46.19%; Activity (MCF7 [19]): 8.99%; Activity (MCF7 [20]): 37.97%; Activity (MCF7 [21]): 3%; Activity (MCF7 [22]): 54%; Activity (MCF7 [23]): 9%; Activity (MCF7 [24]): 34%; Activity (MCF7 [25]): 5%; Activity (MCF7 [26]): 50.97%; Activity (MCF7 [27]): 9.34%; Activity (MCF7 [28]): 34.69%; Activity (MCF7 [29]): 7%; Activity (MCF7 [30]): 47.59%; Activity (MCF7 [31]): 8.97%; Activity (MCF7 [32]): 36.44%
4 | COc1cc2c(cc1OCCCCOc1ccc(C(c3c[nH]c4ccccc34)c3c[nH]c4ccccc34)cc1)N=C[C@@H]1CCCN1C2=O | 0.18 | 2.07 | 24 | 2.49 | – | 2.3 | – | – | – | – | – | – | – | – | – | – | – | – | – | – | GI50 (ZR-75-1): 26.5 µM
5 | COc1cc2c(cc1OCCCCOc1cccc(C(c3c[nH]c4ccccc34)c3c[nH]c4ccccc34)c1)N=C[C@@H]1CCCN1C2=O | 2.01 | 27 | 28.5 | – | – | – | – | – | – | – | – | – | – | – | – | – | – | – | – | – | –
6 | COc1cc2c(cc1OCCCCCCOc1cccc(C(c3c[nH]c4ccccc34)c3c[nH]c4ccccc34)c1)N=C[C@@H]1CCCN1C2=O | 2.01 | 2.29 | 2.3 | 30.8 | – | 30.1 | – | – | – | – | – | – | – | – | – | – | – | – | – | – | –
7 | COc1cc2c(cc1O)N=C[C@@H]1CCCN1C2=O | 0.17 | 0.14 | 0.11 | 0.16 | 0.16 | 0.17 | inactive | Active | Active | Active | Active | Active | Active | Active | 3.14 | 55.11 | 8.02 | 33.79 | 9.27 | 70.84 | Activity (MCF7 [15]): 8.56%; Activity (MCF7 [16]): 11.31%; Activity (MCF7 [17]): 29.68%; Activity (MCF7 [18]): 57.74%; Activity (MCF7 [19]): 4.53%; Activity (MCF7 [20]): 8.05%; Activity (MCF7 [21]): 3.72%; Activity (MCF7 [22]): 53.62%; Activity (MCF7 [23]): 8.26%; Activity (MCF7 [24]): 34.4%; Activity (MCF7 [25]): 9.56%; Activity (MCF7 [26]): 69.54%; Activity (MCF7 [27]): 9.57%; Activity (MCF7 [28]): 11.33%; Activity (MCF7 [29]): 30.04%; Activity (MCF7 [30]): 58.22%; Activity (MCF7 [31]): 4.59%; Activity (MCF7 [32]): 7.15%
8 | Oc1cccc(C(c2c[nH]c3ccccc23)c2c[nH]c3ccccc23)c1 | – | – | – | – | – | – | Active | Active | Active | Active | Active | Active | Active | Active | 2.8 | 51.23 | 9.86 | 36.03 | 3.63 | 50.56 | Activity (MCF7 [15]): 9.41%; Activity (MCF7 [16]): 36.3%; Activity (MCF7 [17]): 6.03%; Activity (MCF7 [18]): 45.99%; Activity (MCF7 [19]): 10.02%; Activity (MCF7 [20]): 37.97%; Activity (MCF7 [21]): 2.9%; Activity (MCF7 [22]): 50%; Activity (MCF7 [23]): 10.1%; Activity (MCF7 [24]): 37%; Activity (MCF7 [25]): 4%; Activity (MCF7 [26]): 50.68%; Activity (MCF7 [27]): 9.24%; Activity (MCF7 [28]): 36.08%; Activity (MCF7 [29]): 6%; Activity (MCF7 [30]): 46.98%; Activity (MCF7 [31]): 9.08%; Activity (MCF7 [32]): 37.93%
